Results from ChEMBL document CHEMBL3039007, “Structure-based identification of OATP1B1/3 inhibitors” (Mol Pharmacol, 2013).
Residues, ends and D or L forms follow the SMILES beside them.

Key:
[1] = target: T1, Solute carrier organic anion transporter family member 1B3 (Homo sapiens, UniProt Q9NPD5); conditions: chinese hamster, cho, 10 µM
T1 sequence (Q9NPD5 whole entry): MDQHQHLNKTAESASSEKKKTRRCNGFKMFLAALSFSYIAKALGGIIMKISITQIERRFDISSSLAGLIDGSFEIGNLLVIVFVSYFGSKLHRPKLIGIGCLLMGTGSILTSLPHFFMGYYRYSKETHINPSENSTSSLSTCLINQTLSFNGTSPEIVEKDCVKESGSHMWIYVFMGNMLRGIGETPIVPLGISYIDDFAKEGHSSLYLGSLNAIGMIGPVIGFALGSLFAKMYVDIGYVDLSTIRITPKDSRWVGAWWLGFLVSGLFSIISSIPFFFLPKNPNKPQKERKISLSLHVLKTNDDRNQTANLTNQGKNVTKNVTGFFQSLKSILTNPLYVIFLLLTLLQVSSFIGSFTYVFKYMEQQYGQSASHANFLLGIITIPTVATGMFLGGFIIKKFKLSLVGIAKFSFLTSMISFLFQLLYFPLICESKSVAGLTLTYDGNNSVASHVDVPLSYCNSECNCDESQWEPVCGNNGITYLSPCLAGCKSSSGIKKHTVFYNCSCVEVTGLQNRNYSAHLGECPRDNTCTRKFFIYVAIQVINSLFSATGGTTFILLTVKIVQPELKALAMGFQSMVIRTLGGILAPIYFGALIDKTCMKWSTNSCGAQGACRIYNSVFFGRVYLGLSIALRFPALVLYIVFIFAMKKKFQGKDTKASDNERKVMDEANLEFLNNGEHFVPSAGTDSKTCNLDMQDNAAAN

[2] = target: T2, Solute carrier organic anion transporter family member 1B1 (Homo sapiens, UniProt Q9Y6L6); conditions: chinese hamster, cho, 10 µM
T2 sequence (Q9Y6L6 whole entry): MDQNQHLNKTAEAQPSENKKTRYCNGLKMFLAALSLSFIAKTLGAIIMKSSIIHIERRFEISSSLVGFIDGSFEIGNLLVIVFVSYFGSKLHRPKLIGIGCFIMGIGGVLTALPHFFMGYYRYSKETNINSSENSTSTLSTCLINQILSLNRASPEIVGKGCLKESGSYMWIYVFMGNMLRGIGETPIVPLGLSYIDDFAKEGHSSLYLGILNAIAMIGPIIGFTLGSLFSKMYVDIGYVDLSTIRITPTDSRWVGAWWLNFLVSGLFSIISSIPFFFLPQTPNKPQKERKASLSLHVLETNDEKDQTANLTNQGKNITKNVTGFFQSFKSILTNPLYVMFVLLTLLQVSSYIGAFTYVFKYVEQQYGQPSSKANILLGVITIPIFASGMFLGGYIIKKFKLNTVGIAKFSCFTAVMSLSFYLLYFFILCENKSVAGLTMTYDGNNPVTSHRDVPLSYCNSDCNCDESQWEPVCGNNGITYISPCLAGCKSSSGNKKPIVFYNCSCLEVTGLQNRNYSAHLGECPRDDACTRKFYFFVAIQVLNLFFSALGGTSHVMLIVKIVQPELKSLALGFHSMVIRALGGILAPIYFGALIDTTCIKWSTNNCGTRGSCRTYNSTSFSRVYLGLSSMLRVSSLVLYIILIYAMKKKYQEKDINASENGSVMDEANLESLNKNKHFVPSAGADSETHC

COc1ccc(C2CC(=O)c3ccc(OC)cc3O2)cc1 (configuration not stated) [LIQUIRITIGENIN DIMETHYL ETHER]
residual activity [1]: 114.3% | residual activity [2]: 104.2%

C[C@H](CCC(=O)O)[C@H]1CC[C@H]2[C@@H]3CC[C@@H]4C[C@H](O)CC[C@]4(C)[C@H]3CC[C@]12C [LITHOCHOLIC ACID]
residual activity [1]: 60.21% | residual activity [2]: 6.612%

CN1[C@@H](CC(=O)c2ccccc2)CCC[C@H]1C[C@H](O)c1ccccc1.Cl [LOBELINE HYDROCHLORIDE]
residual activity [1]: 108.5% | residual activity [2]: 125.6%

C[C@@H]1[C@H]2[C@H](O[C@@H]3O[C@H](CO)[C@@H](O)[C@H](O)[C@H]3O)OC=C(C(=O)O)[C@H]2C[C@@H]1O [LOGANIC ACID]
residual activity [1]: 99.49% | residual activity [2]: 49.18%

COC(=O)C1=CO[C@@H](O[C@@H]2O[C@H](CO)[C@@H](O)[C@H](O)[C@H]2O)[C@@H]2[C@@H](C)[C@@H](O)C[C@H]12 [LOGANIN]
residual activity [1]: 87.42% | residual activity [2]: 98.87%

CC1(C)Oc2ccc3ccc(=O)oc3c2CC1O (configuration not stated) [LOMATIN]
residual activity [1]: 142.3% | residual activity [2]: 92.91%

COc1c2c(c(CC=C(C)C)c3oc(=O)c(-c4ccc(O)cc4)c(O)c13)OC(C)(C)C=C2 [LONCHOCARPIC ACID]
residual activity [1]: 36.3% | residual activity [2]: 26.49%

O=C(O)c1nn(Cc2ccc(Cl)cc2Cl)c2ccccc12 [LONIDAMINE]
residual activity [1]: 108% | residual activity [2]: 129%

CN(C)C(=O)C(CCN1CCC(O)(c2ccc(Cl)cc2)CC1)(c1ccccc1)c1ccccc1.Cl [LOPERAMIDE HYDROCHLORIDE]
residual activity [1]: 94.1% | residual activity [2]: 51.98%

CCCCc1nc(Cl)c(CO)n1Cc1ccc(-c2ccccc2-c2nn[nH]n2)cc1 [LOSARTAN]
residual activity [1]: 3.759% | residual activity [2]: 23.21%

CN1CCN(C2=Nc3ccccc3Oc3ccc(Cl)cc32)CC1.O=C(O)CCC(=O)O [LOXAPINE SUCCINATE]
residual activity [1]: 117.8% | residual activity [2]: 140.7%

O=C(NC(=O)c1c(F)cccc1F)Nc1cc(Cl)c(OC(F)(F)C(F)C(F)(F)F)cc1Cl (configuration not stated) [LUFENURON]
residual activity [1]: 97.09% | residual activity [2]: 102.8%

Cl.O=C(O)CCC1NCC2CC1CN1CCCCC21 (configuration not stated) [LUPANYL ACID HYDROCHLORIDE]
residual activity [1]: 103.3% | residual activity [2]: 104.4%

OC[C@@H]1CCCN2CCCC[C@H]12 [LUPININE]
residual activity [1]: 90.27% | residual activity [2]: 114.4%

O[C@H]1[C@H]2c3cc4c(cc3CN3CCC(=C[C@@H]1O)[C@H]23)OCO4 [LYCORINE]
residual activity [1]: 97.14% | residual activity [2]: 60.96%

NCCCC[C@H](NC(=O)[C@H](Cc1ccc(O)cc1)NC(=O)[C@@H](N)CCCCN)C(=O)O [LYSYL-TYROSYL-LYSINE ACETATE] (H-Lys-Tyr-Lys-OH)
residual activity [1]: 124.3% | residual activity [2]: 85.47%

NCCCC[C@H](N)C(=O)N[C@@H](Cc1ccccc1)C(=O)N[C@@H](Cc1ccc(O)cc1)C(=O)O [LYSYLPHENYLALANYLTYROSINE] (H-Lys-Phe-Tyr-OH)
residual activity [1]: 112.2% | residual activity [2]: 100.8%

Oc1ccc2c(c1)OC[C@H]1c3cc4c(cc3O[C@@H]21)OCO4 [MAACKIAIN]
residual activity [1]: 114.4% | residual activity [2]: 108.2%

Cl.NCc1ccc(S(N)(=O)=O)cc1 [MAFENIDE HYDROCHLORIDE]
residual activity [1]: 85.4% | residual activity [2]: 81.65%

COc1cc2c(cc1O)[C@@H](Cc1ccc(O)cc1)[N+](C)(C)CC2.[I-] [MAGNOCURARINE IODIDE]
residual activity [1]: 96.29% | residual activity [2]: 91.83%

Cc1occc(=O)c1O [MALTOL]
residual activity [1]: 74.61% | residual activity [2]: 79.28%
